Laboratory results reported in article PMC8652888, “Angiogenesis, Anti-Tumor, and Anti-Metastatic Activity of Novel α-Substituted Hetero-Aromatic Chalcone Hybrids as Inhibitors of Microtubule Polymerization” (Frontiers in Chemistry, 2021).
Read-outs that look alike come from different tables or passages of the source.

Experiments:
HepG2 = assay: Antiproliferative activity, SRB assay; assay type: cell-based, human; settings: Homo sapiens, HepG2
Experimental: (§1) The synthesized compounds were first evaluated for their cytotoxic effect on MCF-7 (human breast adenocarcinoma), U937 (histiocytic lymphoma cancer), HepG2 (human liver cancer) cells, and MGC-803 (human gastric cancer) using the SRB and CCK-8 assay. As reference compounds CA-4 and colchicine were included.
(§2) The primary tumor cells were purchased from a professional biomedical company. First, the primary tumor cells were incubated in a cell culture incubator at 37°C and 5% CO2. After the cell fusion reached 85%–95%, subculture was performed, and the tumor cells obtained at this time were used for subsequent related experiments. The CCK-8 method was used to inhibit the proliferation of U937 tumor cells, and the SRB method was used to inhibit the proliferation of MCF7 and HepG2 tumor cells.
Cells were distributed into 96-well plates with a density of 3 × 10^3–4 × 10^3 cells per well and incubated for 24 h in a 5% CO2 incubator at 37°C, followed by treatment with study compounds at different concentrations at 37°C for 72 h. One hundred microliters of 10% (w/v) trichloroacetic acid was added to each well, fixed at 4°C for 30 min, and dried at 65°C. Then 100 μl of 0.4% SRB was added to each well and stained on a shaker for 20 min at room temperature. The excess dye solution was washed with newly prepared 1% glacial acetic acid and dried at 65°C. One hundred fifty microliters of 10 mM unbuffered Trisbase was added to each well of the plate and shaken for 5 min to dissolve the dye. The microplate reader measured the optical density (OD) at a wavelength of 560 nm.

U937 = assay: Antiproliferative activity, CCK-8 assay; assay type: cell-based; settings: Homo sapiens, U-937
Experimental: as §1, §2
The cells in the logarithmic growth phase were seeded in a 96-well plate at 8,000/well, and the drug-containing medium and cell suspension were added to the well. Three wells were added with the blank medium as the blank group. The 96-well plate was incubated for 72 h in a 37°C, 5% CO2 incubator. The 10 μl of CCK-8 dye solution was added to each well, and the incubation continued for 3–4 h.

MCF-7 = assay: Antiproliferative activity, SRB assay; assay type: cell-based, human; settings: Homo sapiens;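 also: proliferation of MCF7 cells quantified by sulforhodamine B staining, with optical density read at 560 nm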
[1] = 72 h, triplicate, mean ± SD, read-out: IC50 ± SD, HepG2
[2] = 72 h, triplicate, mean ± SD, read-out: IC50 ± SD, U937
[3] = MCF7, 72 h, 72 h, triplicate, mean ± SD, read-out: IC50 ± SD, MCF-7
[4] = supplement raw data of table 2, read-out: IC50(Hepg2)
[5] = supplement raw data of table 2, read-out: IC50(U937)
[6] = MCF7, supplement raw data of table 2, read-out: IC50(MCF-7)

## COc1cc(C(=O)/C(C#N)=C/c2cc3ccccc3s2)cc(OC)c1OC [Compound 8o, (E)-3-[benzo(b)thiophen-2-yl]-2-(3,4,5-trimethoxybenzoyl)acrylonitrile]
other
  melting point: 187.5 to 189.3 °C
HepG2; [1]
  IC50: 1701 ± 13 nM
U937; [2]
  IC50: > 20000 nM
MCF-7; [3]
  IC50: 14740 ± 141 nM

## COC(=O)c1ccc2c(/C=C(\C)C(=O)c3cc(OC)c(OC)c(OC)c3)c[nH]c2c1 [Compound 7f, methyl(E)-3-(2-methyl-3-oxo-3-(3,4,5-trimethoxyphenyl)prop-1-en-1-yl)-1H-indole-6-carboxylate]
other
  melting point: 229.3 to 231.7 °C
HepG2; [1]
  IC50: 193 ± 1 nM
U937; [2]
  IC50: 1620 ± 190 nM
MCF-7; [3]
  IC50: 13700 ± 965 nM

## COC(=O)c1cccc2[nH]cc(/C=C(\C#N)C(=O)c3cc(OC)c(OC)c(OC)c3)c12 [Compound 8d, methyl(E)-3-(2-cyano-3-oxo-3-(3,4,5-trimethoxyphenyl)prop-1-en-1-yl)-1H-indole-4-carboxylate]
other
  melting point: 176.7 to 178.2 °C
HepG2; [1]
  IC50: > 20000 nM
U937; [2]
  IC50: 8580 ± 178 nM
MCF-7; [3]
  IC50: > 20000 nM

## COc1cc(C(=O)/C(C)=C/c2cc3ccccc3s2)cc(OC)c1OC [Compound 7o, (E)-3-(benzo[b]thiophen-2-yl)-2-methyl-1-(3,4,5-trimethoxyphenyl)prop-2-en-1-one]
other
  melting point: 81.4 to 83.2 °C
HepG2; [1]
  IC50: 116 ± 1 nM
HepG2; [4]
  IC50: 116 nM
U937; [2]
  IC50: 166 ± 3 nM
U937; [5]
  IC50: 166 nM
MCF-7; [3]
  IC50: 187 ± 3 nM
MCF-7; [6]
  IC50: 187 nM

## COc1cc(C(=O)/C(C#N)=C/c2nc3ccccc3n2C)cc(OC)c1OC [Compound 8r, (E)-3-[1-methyl-1H-benzo (d)imidazol-2-yl]-2-(3,4,5-trimethoxybenzoyl)acrylonitrile]
other
  melting point: 201.8 to 203.1 °C
HepG2; [1]
  IC50: > 20000 nM
U937; [2]
  IC50: 24900 ± 2020 nM
U937; [5]
  IC50: 24900 nM
MCF-7; [3]
  IC50: > 20000 nM

## COc1cc(C(=O)/C(C#N)=C/c2c(-c3ccccc3)[nH]c3ccccc23)cc(OC)c1OC [Compound 8c, (E)-2-((l2-azaneylidene)-l3-methyl)-3-(2-phenyl-1H-indol-3-yl)-1-(3,4,5-trimethoxyphenyl)prop-2-en-1-one]
other
  melting point: 253.8 to 255.9 °C
HepG2; [1]
  IC50: 14100 ± 386 nM
U937; [2]
  IC50: 4490 ± 433 nM
MCF-7; [3]
  IC50: 2100 ± 270 nM

## COc1cc(C(=O)/C(C#N)=C/c2cc3ccccc3o2)cc(OC)c1OC [Compound 8h, (E)-3-(benzofuran-2-yl)-2-(3,4,5-trimethoxybenzoyl)acrylonitrile]
other
  melting point: 168.3 to 169.5 °C
HepG2; [1]
  IC50: > 20000 nM
U937; [2]
  IC50: > 20000 nM
MCF-7; [3]
  IC50: > 20000 nM

## COc1cc(C(=O)/C(C)=C/c2c(C)[nH]c3ccccc23)cc(OC)c1OC [Compound 7b, (E)-2-methyl-3-(2-methyl-1H-indol-3-yl)-1-(3,4,5-trimethoxyphenyl)prop-2-en-1-one]
other
  melting point: 152.7 to 153.2 °C
HepG2; [1]
  IC50: 10800 ± 629 nM
U937; [2]
  IC50: 3080 ± 433 nM
MCF-7; [3]
  IC50: 584 ± 16 nM
MCF-7; [6]
  IC50: 584 nM

## COc1cc(C(=O)/C(C#N)=C/c2c[nH]c3ccccc23)cc(OC)c1OC [Compound 8a, (E)-3-(1H-indol-3-yl)-2-(3,4,5-trimethoxybenzoyl)acrylonitrile]
other
  melting point: 224.2 to 229.3 °C
HepG2; [1]
  IC50: 938 ± 8 nM
HepG2; [4]
  IC50: 938 nM
U937; [2]
  IC50: 140 ± 41 nM
U937; [5]
  IC50: 140 nM
MCF-7; [3]
  IC50: 934 ± 23 nM
MCF-7; [6]
  IC50: 940 nM

## COC(=O)c1ccc2[nH]cc(/C=C(\C#N)C(=O)c3cc(OC)c(OC)c(OC)c3)c2c1 [Compound 8e, methyl(E)-3-(2-cyano-3-oxo-3-(3,4,5-trimethoxyphenyl)prop-1-en-1-yl)-1H-indole-5-carboxylate]
other
  melting point: > 260 °C
HepG2; [1]
  IC50: > 20000 nM
U937; [2]
  IC50: > 20000 nM
MCF-7; [3]
  IC50: > 20000 nM

## COc1cc(C(=O)/C(C#N)=C/c2cc3c(cc2Br)OCO3)cc(OC)c1OC [Compound 8t, (E)-3-[6-bromobenzo(d)(1,3)dioxol-5-yl]-2-(3,4,5-trimethoxybenzoyl)acrylonitrile]
other
  melting point: 207.1 to 209 °C
HepG2; [1]
  IC50: > 20000 nM
U937; [2]
  IC50: > 20000 nM
MCF-7; [3]
  IC50: > 20000 nM

## COc1cc(C(=O)/C(C)=C/c2cc3ccccc3o2)cc(OC)c1OC [Compound 7h, (E)-3-(benzofuran-2-yl)-2-methyl-1-(3,4,5-trimethoxyphenyl)prop-2-en-1-one]
other
  melting point: 50.1 to 53.2 °C
HepG2; [1]
  IC50: 116 ± 7 nM
U937; [2]
  IC50: 224 ± 7 nM
MCF-7; [3]
  IC50: 254 ± 10 nM
MCF-7; [6]
  IC50: 255 nM

## COc1cc(C(=O)/C(C#N)=C/c2c(C)[nH]c3ccccc23)cc(OC)c1OC [Compound 8b, (E)-3-(2-methyl-1H-indol-3-yl)-2-(3,4,5-trimethoxybenzoyl)acrylonitrile]
other
  melting point: 216.5 to 218.2 °C
HepG2; [1]
  IC50: > 20000 nM
U937; [2]
  IC50: > 20000 nM
MCF-7; [3]
  IC50: > 20000 nM

## COc1cc(C(=O)/C(C#N)=C/c2oc3ccccc3c2C)cc(OC)c1OC [Compound 8i, (E)-3-(3-methylbenzofuran-2-yl)-2-(3,4,5-trimethoxybenzoyl)acrylonitrile]
other
  melting point: 136.7 to 138.5 °C
HepG2; [1]
  IC50: > 20000 nM
U937; [2]
  IC50: > 20000 nM
MCF-7; [3]
  IC50: > 20000 nM

## COc1cc(C(=O)/C(C#N)=C/c2coc3ccccc23)cc(OC)c1OC [Compound 8j, (E)-3-(benzofuran-3-yl)-2-(3,4,5-trimethoxybenzoyl)acrylonitrile]
other
  melting point: 176.5 to 178.4 °C
HepG2; [1]
  IC50: > 20000 nM
U937; [2]
  IC50: > 20000 nM
MCF-7; [3]
  IC50: > 20000 nM

## COc1cc(C(=O)/C(C#N)=C/c2ccc3occc3c2)cc(OC)c1OC [Compound 8m, (E)-3-(benzofuran-5-yl)-2-(3,4,5-trimethoxybenzoyl)acrylonitrile]
other
  melting point: 169.7 to 172.1 °C
HepG2; [1]
  IC50: > 20000 nM
U937; [2]
  IC50: > 20000 nM
MCF-7; [3]
  IC50: > 20000 nM

## COc1cc(C(=O)/C(C#N)=C/c2ccc3oc4ccccc4c3c2)cc(OC)c1OC [Compound 8l, (E)-3-[dibenzo (b,d)furan-2-yl]-2-(3,4,5-trimethoxybenzoyl)acrylonitrile]
other
  melting point: 181.3 to 182.6 °C
HepG2; [1]
  IC50: > 20000 nM
U937; [2]
  IC50: > 20000 nM
MCF-7; [3]
  IC50: > 20000 nM

## COc1cc(C(=O)/C(C#N)=C/c2c[nH]c3cc(Br)ccc23)cc(OC)c1OC [Compound 8g, (E)-3-(6-bromo-1H-indol-3-yl)-2-(3,4,5-trimethoxybenzoyl)acrylonitrile]
other
  melting point: 266.5 to 268.2 °C
HepG2; [1]
  IC50: 1430 ± 49 nM
U937; [2]
  IC50: 2510 ± 29 nM
MCF-7; [3]
  IC50: 2161 ± 9 nM

## COc1cc(C(=O)/C(C)=C/c2ccc3c(c2)CCO3)cc(OC)c1OC [Compound 7n, (E)-3-(2,3-dihydrobenzofuran-5-yl)-2-methyl-1-(3,4,5-trimethoxyphenyl)prop-2-en-1-one]
HepG2; [1]
  IC50: 2 ± 0.1 nM
HepG2; [4]
  IC50: 2.21 nM
U937; [2]
  IC50: 11 ± 2 nM
U937; [5]
  IC50: 10.8 nM
MCF-7; [3]
  IC50: 20 ± 2 nM
MCF-7; [6]
  IC50: 19.5 nM

## COc1cc(C(=O)/C(C#N)=C/c2cccc3c2OCO3)cc(OC)c1OC [Compound 8s, (E)-3-[benzo(d)(1,3)dioxol-4-yl]-2-(3,4,5-trimethoxybenzoyl)acrylonitrile]
other
  melting point: 176.3 to 177.8 °C
HepG2; [1]
  IC50: > 20000 nM
U937; [2]
  IC50: > 20000 nM
MCF-7; [3]
  IC50: > 20000 nM

## COC(=O)c1ccc2c(/C=C(\C#N)C(=O)c3cc(OC)c(OC)c(OC)c3)c[nH]c2c1 [Compound 8f, methyl(E)-3-(2-cyano-3-oxo-3-(3,4,5-trimethoxyphenyl)prop-1-en-1-yl)-1H-indole-6-carboxylate]
other
  melting point: 239.7 to 241 °C
HepG2; [1]
  IC50: > 20000 nM
U937; [2]
  IC50: > 20000 nM
MCF-7; [3]
  IC50: > 20000 nM

## COc1cc(C(=O)/C(C#N)=C/c2ccc3c(c2)CCO3)cc(OC)c1OC [Compound 8n, (E)-3-(2,3-dihydrobenzofuran-5-yl)-2-(3,4,5-trimethoxybenzoyl)acrylonitrile]
HepG2; [1]
  IC50: > 20000 nM
U937; [2]
  IC50: 9250 ± 141 nM
MCF-7; [3]
  IC50: > 20000 nM

## COc1cc(C(=O)/C(C)=C/c2cccc3c2OCO3)cc(OC)c1OC [Compound 7s, (E)-3-(benzo[d][1,3]dioxol-4-yl)-2-methyl-1-(3,4,5-trimethoxyphenyl)prop-2-en-1-one]
other
  melting point: 119.7 to 120.9 °C
HepG2; [1]
  IC50: 259 ± 5 nM
HepG2; [4]
  IC50: 259 nM
U937; [2]
  IC50: 353 ± 6 nM
U937; [5]
  IC50: 353 nM
MCF-7; [3]
  IC50: 225 ± 5 nM

## COc1cc(C(=O)/C(C#N)=C/c2csc3ccccc23)cc(OC)c1OC [Compound 8p, (E)-3-[benzo(b)thiophen-3-yl]-2-(3,4,5-trimethoxybenzoyl)acrylonitrile]
other
  melting point: 201.8 to 203.1 °C
HepG2; [1]
  IC50: > 20000 nM
U937; [2]
  IC50: > 20000 nM
MCF-7; [3]
  IC50: > 20000 nM
